# Experimental data from the supplement of paper PMC10307832.
# Compound: O=C(Nc1cc(C(F)(F)F)cc(C(F)(F)F)c1)c1cc(Cl)ccc1O [IMD-0354] + CS(=O)(=O)CCNCc1ccc(-c2ccc3ncnc(Nc4ccc(OCc5cccc(F)c5)c(Cl)c4)c3c2)o1 [Lapatinib] (partner 2 µM)
# Test: relative viability (nuclei count vs DMSO), 5 days (fraction); higher = more cells survive
# Details: first compound 0.04 µM
# Procedure, shortened: (§1)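 The day after seeding in 1536-well plates, lung cancer cell lines were treated by pin tool with a single drug, or with a fixed anchor-drug dose together with five library-drug doses (not always all listed) in √10 steps. After 5 days, a combined fix-and-stain solution (final 0.05% Triton X-100, 1% formaldehyde, 1 ug/ml Hoechst) was added. Nuclei counted on 4× images gave relative viability as treated counts over vehicle counts, reported as the median of duplicate plates.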
row,Cell Line,relative viability
1,NCI-H727,0.801
2,NCI-H1650,0.864
3,EBC-1,0.163
4,NCI-H1703,0.936
5,NCI-H1993,0.79
6,SK-LU-1,1.07
7,NCI-H838,1.14
8,NCI-H520,0.932
9,NCI-H2126,0.793
10,EMC-BAC-2,0.965

# Same assay, conditions: first compound 0.1265 µM
row,Cell Line,relative viability
1,NCI-H727,0.84
2,NCI-H1650,0.757
3,EBC-1,0.202
4,NCI-H1703,1.03
5,NCI-H1993,0.788
6,SK-LU-1,0.851
7,NCI-H838,0.855
8,NCI-H520,0.792
9,NCI-H2126,0.803
10,EMC-BAC-2,0.803

# Same assay, conditions: first compound 0.4 µM
row,Cell Line,relative viability
1,NCI-H727,0.55
2,NCI-H1650,0.481
3,EBC-1,0.251
4,NCI-H1703,0.475
5,NCI-H1993,0.754
6,SK-LU-1,0.376
7,NCI-H838,0.399
8,NCI-H520,0.46
9,NCI-H2126,0.655
10,EMC-BAC-2,0.555

# Same assay, conditions: first compound 1.265 µM
row,Cell Line,relative viability
1,NCI-H727,0.439
2,NCI-H1650,0.211
3,EBC-1,0.168
4,NCI-H1703,0.202
5,NCI-H1993,0.497
6,SK-LU-1,0.47
7,NCI-H838,0.305
8,NCI-H520,0.197
9,NCI-H2126,0.768
10,EMC-BAC-2,0.408

# Same assay, conditions: first compound 4 µM
row,Cell Line,relative viability
1,NCI-H727,0.325
2,NCI-H1650,0.184
3,EBC-1,0.249
4,NCI-H1703,0.21
5,NCI-H1993,0.562
6,SK-LU-1,0.27
7,NCI-H838,0.261
8,NCI-H520,0.197
9,NCI-H2126,0.378
10,EMC-BAC-2,0.229

# Compound: Cc1cnc(CNC(=O)c2c(=O)c3ccc(N4CCCN(C)CC4)nc3n3c2sc2ccccc23)cn1 [CX-5461] + CS(=O)(=O)N1CCN(Cc2cc3nc(-c4cccc5[nH]ncc45)nc(N4CCOCC4)c3s2)CC1 [Pictilisib] (partner 1 µM)
# Test: as above
# Details: first compound 0.01 µM
# Procedure, shortened: as §1
row,Cell Line,relative viability
1,NCI-H727,0.355
2,NCI-H1650,0.577
3,EBC-1,0.375
4,NCI-H1703,0.258
5,NCI-H1993,0.778
6,SK-LU-1,0.659
7,NCI-H838,0.457
8,LCLC-103H,0.588
9,NCI-H520,0.218
10,NCI-H2126,0.486
11,EMC-BAC-2,0.555
12,ChaGo-K-1,0.938
13,NCI-H441,0.376

# Same assay, conditions: first compound 0.03162 µM
row,Cell Line,relative viability
1,NCI-H727,0.492
2,NCI-H1650,0.593
3,EBC-1,0.344
4,NCI-H1703,0.243
5,NCI-H1993,0.83
6,SK-LU-1,0.616
7,NCI-H838,0.473
8,LCLC-103H,0.611
9,NCI-H520,0.299
10,NCI-H2126,0.521
11,EMC-BAC-2,0.565
12,ChaGo-K-1,0.658
13,NCI-H441,0.515

# Same assay, conditions: first compound 0.1 µM
row,Cell Line,relative viability
1,NCI-H727,0.277
2,EBC-1,0.331
3,NCI-H1703,0.239
4,NCI-H1993,0.891
5,SK-LU-1,0.602
6,NCI-H838,0.5
7,LCLC-103H,0.603
8,NCI-H520,0.285
9,NCI-H2126,0.478
10,EMC-BAC-2,0.562
11,ChaGo-K-1,0.564
12,NCI-H441,0.505

# Same assay, conditions: first compound 0.3162 µM
row,Cell Line,relative viability
1,NCI-H727,0.253
2,NCI-H1650,0.206
3,EBC-1,0.362
4,NCI-H1703,0.284
5,NCI-H1993,0.84
6,SK-LU-1,0.573
7,NCI-H838,0.474
8,LCLC-103H,0.483
9,NCI-H520,0.305
10,NCI-H2126,0.518
11,EMC-BAC-2,0.414
12,ChaGo-K-1,0.35
13,NCI-H441,0.382

# Same assay, conditions: first compound 1 µM
row,Cell Line,relative viability
1,NCI-H727,0.614
2,NCI-H1650,0.226
3,EBC-1,0.224
4,NCI-H1703,0.221
5,NCI-H1993,0.819
6,SK-LU-1,0.417
7,NCI-H838,0.325
8,LCLC-103H,0.619
9,NCI-H520,0.298
10,NCI-H2126,0.487
11,EMC-BAC-2,0.353
12,ChaGo-K-1,0.395
13,NCI-H441,0.339

# Compound: Cc1cnc(CNC(=O)c2c(=O)c3ccc(N4CCCN(C)CC4)nc3n3c2sc2ccccc23)cn1 [CX-5461]
# Test: relative viability (nuclei count vs DMSO), 5 days (fraction); higher = more cells survive
# Details: 0.01 µM
# Procedure, shortened: (§2)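 In 1536-well plates, lung cancer cell lines rested overnight at 37 °C before five library-drug doses (not always all listed), √10 apart, were pinned onto vehicle-anchored plates. Nuclei were counted with MetaXpress from 4× Hoechst images taken after 5 days without medium change. Viability compares treated-well with vehicle-well nuclei as a median over plates, and plates needed control CV below 25% plus at least one doubling to pass.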
row,Cell Line,relative viability
1,NCI-H522,0.98
2,NCI-H1623,1.18
3,NCI-H727,1.07
4,NCI-H1650,0.965
5,EBC-1,1.01
6,NCI-H1703,0.955
7,NCI-H1993,1.06
8,SK-LU-1,1.08
9,NCI-H838,0.983
10,LCLC-103H,1.02
11,NCI-H520,1.14
12,NCI-H2126,1
13,EMC-BAC-2,0.962
14,NCI-H2342,0.997
15,ChaGo-K-1,1.02
16,SW 900,0.918
17,NCI-H1648,0.614
18,NCI-H441,1.08

# Same assay, conditions: 0.03162 µM
row,Cell Line,relative viability
1,NCI-H522,0.944
2,NCI-H1623,0.979
3,NCI-H727,1.03
4,NCI-H1650,0.948
5,EBC-1,1.05
6,NCI-H1703,1.06
7,NCI-H1993,1.08
8,SK-LU-1,1.07
9,NCI-H838,1
10,LCLC-103H,1.05
11,NCI-H520,1.02
12,NCI-H2126,1.06
13,EMC-BAC-2,0.909
14,NCI-H2342,1
15,ChaGo-K-1,0.967
16,SW 900,1.11
17,NCI-H1648,0.952
18,NCI-H441,1.17

# Same assay, conditions: 0.1 µM
row,Cell Line,relative viability
1,NCI-H522,0.946
2,NCI-H1623,0.904
3,NCI-H727,1.03
4,NCI-H1650,0.406
5,EBC-1,1.08
6,NCI-H1703,0.91
7,NCI-H1993,1.01
8,SK-LU-1,1.04
9,NCI-H838,0.992
10,LCLC-103H,0.969
11,NCI-H520,1.09
12,NCI-H2126,1.03
13,EMC-BAC-2,0.769
14,NCI-H2342,0.834
15,ChaGo-K-1,1.04
16,SW 900,0.586
17,NCI-H1648,0.674
18,NCI-H441,0.947

# Same assay, conditions: 0.3162 µM
row,Cell Line,relative viability
1,NCI-H1623,0.674
2,NCI-H727,0.875
3,NCI-H1650,0.794
4,EBC-1,0.907
5,NCI-H1703,1.09
6,NCI-H1993,0.952
7,SK-LU-1,1.07
8,NCI-H838,0.78
9,LCLC-103H,0.944
10,NCI-H520,0.666
11,NCI-H2126,0.991
12,EMC-BAC-2,0.818
13,NCI-H2342,1.04
14,ChaGo-K-1,0.571
15,SW 900,0.877
16,NCI-H1648,0.742
17,NCI-H441,0.888

# Same assay, conditions: 1 µM
row,Cell Line,relative viability
1,NCI-H522,0.951
2,NCI-H1623,0.94
3,NCI-H727,0.78
4,NCI-H1650,0.205
5,EBC-1,0.782
6,NCI-H1703,0.569
7,NCI-H1993,0.993
8,SK-LU-1,0.736
9,NCI-H838,0.806
10,LCLC-103H,0.969
11,NCI-H520,0.578
12,NCI-H2126,0.972
13,EMC-BAC-2,0.488
14,NCI-H2342,0.889
15,ChaGo-K-1,0.552
16,SW 900,0.401
17,NCI-H1648,0.851
18,NCI-H441,0.689

# Compound: O=C(Nc1cc(C(F)(F)F)cc(C(F)(F)F)c1)c1cc(Cl)ccc1O [IMD-0354]
# Test: as above
# Details: 0.04 µM
# Procedure, shortened: as §2
row,Cell Line,relative viability
1,NCI-H522,0.934
2,NCI-H1623,0.962
3,NCI-H727,0.838
4,NCI-H1650,0.96
5,EBC-1,0.914
6,NCI-H1703,1.11
7,NCI-H1993,0.939
8,SK-LU-1,1.16
9,NCI-H838,0.977
10,LCLC-103H,1.02
11,NCI-H520,1.05
12,NCI-H2126,1.03
13,EMC-BAC-2,1.02
14,NCI-H2342,1.03
15,ChaGo-K-1,1.12
16,SW 900,0.987
17,NCI-H1648,0.588
18,NCI-H441,1.13

# Same assay, conditions: 0.1265 µM
row,Cell Line,relative viability
1,NCI-H522,0.848
2,NCI-H1623,1
3,NCI-H727,0.908
4,NCI-H1650,0.771
5,EBC-1,0.971
6,NCI-H1703,1.02
7,NCI-H1993,0.89
8,SK-LU-1,0.97
9,NCI-H838,0.954
10,LCLC-103H,1.01
11,NCI-H520,0.93
12,NCI-H2126,0.981
13,EMC-BAC-2,0.962
14,NCI-H2342,1.05
15,ChaGo-K-1,1.08
16,SW 900,0.889
17,NCI-H1648,0.686
18,NCI-H441,0.966

# Same assay, conditions: 0.4 µM
row,Cell Line,relative viability
1,NCI-H522,0.909
2,NCI-H1623,1.02
3,NCI-H727,0.732
4,NCI-H1650,0.616
5,EBC-1,0.585
6,NCI-H1703,0.507
7,NCI-H1993,0.648
8,SK-LU-1,0.581
9,NCI-H838,0.565
10,LCLC-103H,0.653
11,NCI-H520,0.545
12,NCI-H2126,0.848
13,EMC-BAC-2,0.675
14,NCI-H2342,0.764
15,ChaGo-K-1,0.751
16,SW 900,0.509
17,NCI-H1648,0.685
18,NCI-H441,0.521

# Same assay, conditions: 1.265 µM
row,Cell Line,relative viability
1,NCI-H522,0.7
2,NCI-H1623,0.992
3,NCI-H727,0.494
4,NCI-H1650,0.252
5,EBC-1,0.304
6,NCI-H1703,0.282
7,NCI-H1993,0.555
8,SK-LU-1,0.488
9,NCI-H838,0.432
10,LCLC-103H,0.457
11,NCI-H520,0.589
12,NCI-H2126,0.484
13,EMC-BAC-2,0.425
14,NCI-H2342,0.633
15,ChaGo-K-1,0.339
16,SW 900,0.239
17,NCI-H1648,0.814
18,NCI-H441,0.227

# Same assay, conditions: 4 µM
row,Cell Line,relative viability
1,NCI-H522,0.406
2,NCI-H1623,0.451
3,NCI-H727,0.509
4,NCI-H1650,0.174
5,EBC-1,0.205
6,NCI-H1703,0.14
7,NCI-H1993,0.567
8,SK-LU-1,0.277
9,NCI-H838,0.27
10,LCLC-103H,0.331
11,NCI-H520,0.226
12,NCI-H2126,0.387
13,EMC-BAC-2,0.383
14,NCI-H2342,0.476
15,ChaGo-K-1,0.267
16,SW 900,0.243
17,NCI-H1648,0.365
18,NCI-H441,0.243
